Where a SMILES comes first, the peptide text is derived from it. [ ]: non-standard residue; d: D form. Aib = CC(C)(N)C(=O)O

The text below walks through data of ChEMBL document CHEMBL4420062, “Tfpi inhibitors and methods of use” (2013).

The test deals with T1, Tissue factor pathway inhibitor (Homo sapiens, UniProt P10646).
T1 sequence (P10646 whole entry): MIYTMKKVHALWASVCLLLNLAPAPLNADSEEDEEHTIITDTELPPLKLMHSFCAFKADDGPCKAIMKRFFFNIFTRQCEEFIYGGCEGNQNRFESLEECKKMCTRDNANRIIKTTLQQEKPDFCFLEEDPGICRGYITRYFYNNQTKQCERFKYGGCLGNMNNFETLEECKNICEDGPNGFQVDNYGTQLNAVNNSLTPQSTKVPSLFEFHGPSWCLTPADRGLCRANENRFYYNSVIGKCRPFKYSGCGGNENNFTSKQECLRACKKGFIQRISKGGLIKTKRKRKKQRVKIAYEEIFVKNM
In words: Binding affinity to TFPI (unknown origin) incubated for […] using tracer peptide JBT0131 by screening ELISA. For orientation: An ELISA detects its analyte on a solid surface through an enzyme-linked reagent.
What is called IC50 is the concentration at which inhibition is half-maximal. A higher IC50 goes with a need for much substance. Ac-FQSFKNVFVFGYFERLRAKL-NH2 registered a half-maximal inhibitory concentration (IC50) above 5 µM.

In the case of Ac-FQSKKNVFVFGYFERFRAKL-NH2, the IC50 is above 5 µM.

In the case of Ac-FQSDKNVFVFGYFERLRAKL-NH2, the IC50 was above 5 µM.

Regarding Ac-FQSKKNVFVFGYFEGLRAKL-NH2, the IC50 was above 5 µM.

On to Ac-FDSKKNVFVFGYFERLRAKL-NH2, for which the half-inhibitory concentration (IC50) was above 1.67 µM.

The compound Ac-FQSKLNVFVFGYFERLRAKL-NH2 yielded an IC50 above 1.67 µM.

Take Ac-FQSKGNVFVDGYFERLRRKL-NH2: the IC50 is below 0.05 µM.

Ac-FQSKKNVFLFGYFERLRAKL-NH2 displayed an IC50 above 5 µM.

The compound Ac-FQSKKNVFDFGYFERLRAKL-NH2 showed an IC50 above 5 µM.

In the case of Ac-FQSKKNVFVFGYFERLRAFL-NH2, the IC50 was above 5 µM.

In turn, Ac-FQSKKNVFVFFYFERLRAKL-NH2 came in with a concentration for half-maximal inhibition (IC50) above 1.67 µM.

As for Ac-FQSKKNDFVFGYFERLRAKL-NH2, the IC50 is above 5 µM.

With `CC(=O)N[C@@H](Cc1ccccc1)C(=O)N[C@@H](CCC(N)=O)C(=O)N[C@@H](CO)C(=O)N[C@@H](CCCCN)C(=O)NCC(=O)N[C@@H](CC(N)=O)C(=O)N[C@H](C(=O)N[C@@H](Cc1ccccc1)C(=O)N[C@H](C(=O)N[C@@H](CC(=O)O)C(=O)NCC(=O)N[C@@H](Cc1ccc(O)cc1)C(=O)N[C@@H](Cc1ccccc1)C(=O)N[C@@H](CCC(=O)O)C(=O)NC(C)(C)C(=O)N[C@@H](CC(C)C)C(=O)NC(C)(C)C(=O)N[C@@H](C)C(=O)N[C@@H](CCCCN)C(=O)N[C@@H](CC(C)C)C(N)=O)C(C)C)C(C)C` (Ac-FQSKGNVFVDGYFE[Aib]L[Aib]AKL-NH2), the IC50 is above 5 µM.

The compound Ac-FQSKKLVFVFGYFERLRAKL-NH2 registered a concentration for half-maximal inhibition (IC50) above 5 µM.
